In general, inhibition refers to the relative decrease from the control value, in per cent.

The record followed here is US11000587B2, “Use as immune enhancer or pharmaceutical composition for treatment of dementia, comprising phytosphingosine-1-phosphate or derivative thereof” (AXCESO BIOPHARMA CO., LTD., priority 2016, dated 2021).

Test [1] relates to Raw264.7 cells. The test is described as follows: TNF-α production in LPS-stimulated macrophages (ELISA). The class given is cell-based, mouse. The conditions noted are these: LPS 1 ng/mL; for Amount of TNF-α / inhibition at 0.01 µM / inhibition at 0.1 µM / inhibition at 0.5 µM / inhibition at 1 µM: 4 hours; for inhibition at 0.01 µM / inhibition at 0.1 µM / inhibition at 0.5 µM / inhibition at 1 µM: Mus musculus, RAW264.7, 4 h, read-out: Inhibition rate of TNF-α production. The protocol: Raw264.7 cells, which is a mouse macrophage cell line (Korean Cell Line Bank, cultured with RPMI 1640/10% fetal bovine serum) were seeded at 4.5×10^5/mL and cultured overnight, and then, treated with LPS (lipopolysaccharide) (1 ng/mL), and S1P and P1P diluted with a culture medium according to the concentrations ([…]). After culturing at 37° C. in a 5% CO2 incubator for 4 hours, the supernatant was collected and stored at 4° C. The concentration of TNF-α, an inflammatory cytokine secreted in the supernatant, was measured using an ELISA kit (BD OptEIA™ TNF Mouse set) according to the manufacturer's instructions. The culture medium was diluted by ¼ in all experimental groups except for the treated group, and the concentration was measured.
A general note: An ELISA detects its analyte on a solid surface through an enzyme-linked reagent.

Test [2] deals with PC12 cell. Briefly: Protection against neuronal cell death induced by hydrogen peroxide (oxidative stress), Ez-Cytox viability. It counts as cell-based, Mouse. To be noted: 100 nM, 350 μM hydrogen peroxide (about 90% of nerve cells killed without treatment). The method, then: PC12 cell line (KCLB 21721, Korea Cell Line Bank, Seoul, Korea) was used to test the effect of P1P and the antibodies on the neuronal cell death caused by hydrogen peroxide and Aβ. The PC12 cells were cultured in RPMI 1640 medium containing 10% fetal bovine serum and 1% penicillin/streptomycin at 37° C. in a 5% CO2 incubator.
After culturing the cells for 24 hours, P1P, cyclic P1P and NAPS-1-P dissolved in DMSO to a concentration of 2 mM were diluted and added to the medium such that the concentrations were 10 nM, 100 nM and 1000 nM. After culturing for 1 hour, 350 μM of H2O2 was added to […] and cultured. Subsequently, in order to measure cell viability, the absorbance was measured at 450 nm using Ez-Cytox (Dogen) after 6 hours, and the efficacy of P1P and derivatives thereof against oxidative stress was measured. The cell death induced by Aβ was initiated by treating 10 μM of Aβ instead of 350 μM of hydrogen peroxide, and the efficacy of P1P and the antibodies against the cell death induced by Aβ was measured using Ez-Cytox after 24 hours.

Test [3] deals with Aβ antigen. The test is described as follows: Antibody-forming ability in vaccinated mice, total IgG titer (ELISA). The class given is in vivo, Balb/c mice. The conditions noted are these: vaccine with Aβ antigen, intramuscular. The protocol:
(§1) The mice were inoculated with the vaccines prepared as described above. 6-week-old Balb/c mice were used in the experiment, and there were 4 mice per group. The mice were injected intramuscularly with the vaccines prepared containing PBS, Alum, S1P (EB101), P1P, cyclic P1P, and NAPS-1-P as described above. […] The vaccine candidates were inoculated twice at an interval of 3 weeks. PBS was used as a negative control without Aβ antigen, and S1P and Alum were used as control. Alum is an adjuvant used in vaccines and is known to induce a Th2 immune response, and thus was used as a positive control for the Th2 response, and S1P was used as a control for comparison of antibody producing-ability.
The antibody-forming ability in the serum was determined as follows:
A 96-well plate was coated with Aβ antigen (1 μg/mL) and reacted at room temperature overnight. Then, the solution in each well was removed and blocked with albumin. The primary antibody (the immune serum) was subjected to 2-fold dilution with the following composition solution (0.014 M sodium phosphate, pH 7.4, 0.15 M NaCl, 0.6% albumin, 0.05% thimerosal) and added to each well. After reacting at room temperature for about 1 hour, the antibodies were washed 5 times with PBS containing 0.05% Tween 20. Subsequently, a secondary antibody conjugated to horseradish peroxidase (goat mouse IgG conjugated to horseradish peroxidase, Boehringer Mannheim) was added and reacted at room temperature for 1 hour. After washing 5 times with PBS containing Tween, 100 μL of 3,3,5,5-tetramethyl benzidine (from Pierce Chemicals) was added for color development, and reacted at room temperature for 15 minutes. The color development reaction was terminated by adding sulfuric acid.

The subject of test [4] is Aβ antigen. The test is described as follows: IgG isotyping (IgG1, IgG2a, IgG2b titer) in vaccinated mice. It counts as in vivo, Balb/c mice. The conditions noted are these: blood collected at 4th week after the second vaccination. The protocol:
as §1
In the fourth week, which was the last week, about 300 to 400 μl of blood was collected from the heart, and the serum components were separated by centrifugation at 1400 rpm for 10 minutes at room temperature. The antibody-forming ability in the serum was determined as follows:
The IgG isotyping was measured in the same manner as the total IgG measurement except that the following antibodies were used as secondary antibodies. For IgG1, IgG2a and IgG2b, anti-mouse IgG1, IgG2a or IgG2b conjugated to horseradish peroxidase (Boehringer Mannheim) were used.

The test system of test [5] is IL-4. The test is described as follows: Th2 cytokine (IL-4) from splenocytes of inoculated mice re-stimulated with Aβ antigen. It counts as in vivo. The conditions noted are these: for IL-4: splenocytes of vaccinated mice, re-stimulated with Aβ antigen 72 hours. The method, then:
as §1
(§2) The spleen was removed from the mice inoculated as described above to obtain splenocytes. Red blood cells were lysed with 100 mM Tris buffer. The obtained splenocytes were washed twice with PBS and centrifuged at 1600 rpm for 5 minutes. […] The splenocytes thus obtained were re-stimulated with a constant amount of Aβ antigen for 72 hours.
(§3) Subsequently, Th1 cytokine (TNF-α) and Th2 cytokine (IL-4) secreted from the mouse splenocytes were subjected to an ELISpot assay using an ELISPOT (BD Pharmingen) kit according to the manufacturer's instructions. The number of colored spots was measured to compare the number of cytokine-secreting cells.

The subject of test [6] is TNF-α. Briefly: Th1 cytokine (TNF-α) from splenocytes of inoculated mice re-stimulated with Aβ antigen. It counts as in vivo. The conditions noted are these: for TNF-α: splenocytes of vaccinated mice, re-stimulated with Aβ antigen 72 hours. The protocol:
as §1, §2, §3

[7] abbreviates: 2 weeks after secondary inoculation.
The mark [8] stands for this setting: 3 weeks after primary inoculation.
Where [9] appears, read: 4 weeks after secondary inoculation.

For the compound `CCCCCCCCCCCCCC[C@@H](O)[C@@H](O)[C@H](COP(=O)(O)O)NC(C)=O` [NAPS-1-P, N-acetyl phytosphingosine-1-phosphate], in test [1] (10 nM), the “Amount of TNF-α” value was 15000 pg/mL and the inhibition at 0.01 µM was -4.2%. In test [1] (100 nM), the “Amount of TNF-α” value amounted to 15200 pg/mL and the inhibition at 0.1 µM is -4.2%. Also, in test [1] (500 nM), the “Amount of TNF-α” value came out at 12200 pg/mL and the inhibition at 0.5 µM turned out to be 15.3%. In addition, in test [1] (1000 nM), the “Amount of TNF-α” value was found to be 10000 pg/mL and the inhibition at 1 µM was found to be 30.6%. Besides, the “neuronal cell death induced by hydrogen peroxide” value in test [2] was “the nerve cells were not killed”. In test [3] (setting [7]), the “Average Antibody Titer” value was found to be 5600 ± 2000. Further, in test [3] (setting [8]), the “Average Antibody Titer” value was 84 ± 50. Moreover, the “Average Antibody Titer” value in test [3] (setting [9]) is listed as 5600 ± 2000. Moreover, in test [4], the “IgG1 Average Antibody Titer” value came to 1700 ± 600, the “IgG2a Average Antibody Titer” value was 0 and the “IgG2b Average Antibody Titer” value came to 0. Further, the IL-4 in test [5] was 11.04 ± 0.78 pg/mL. The compound further had a TNF-α in test [6] of 40.4 ± 15.52 pg/mL.
On to `CCCCCCCCCCCCCC[C@@H](O)[C@H]1OP(=O)(O)OC[C@@H]1N` [CP1P, O-cyclic P1P], for which, in test [1] (10 nM), the “Amount of TNF-α” value was 10600 pg/mL and the inhibition at 0.01 µM came out at 26.3%. Also, in test [1] (100 nM), the “Amount of TNF-α” value was 7800 pg/mL and the inhibition at 0.1 µM was determined as 26.3%. Further, in test [1] (500 nM), the “Amount of TNF-α” value is 7500 pg/mL and the inhibition at 0.5 µM was determined as 47.9%. In test [1] (1000 nM), the “Amount of TNF-α” value is recorded as 7550 pg/mL and the inhibition at 1 µM came to 47.5%. The “neuronal cell death induced by hydrogen peroxide” value in test [2] was “the nerve cells were not killed”. Further, the “Average Antibody Titer” value in test [3] (setting [7]) is on record as 11000 ± 2500. Besides, in test [3] (setting [8]), the “Average Antibody Titer” value is 140 ± 50. The “Average Antibody Titer” value in test [3] (setting [9]) amounted to 9000 ± 2000. In test [3] (Before inoculation), the “Average Antibody Titer” value was determined as 0. Besides, in test [4], the “IgG1 Average Antibody Titer” value is 6100 ± 2100, the “IgG2a Average Antibody Titer” value came to 0 and the “IgG2b Average Antibody Titer” value amounted to 0. The compound further had an IL-4 in test [5] of 12.06 ± 1.25 pg/mL. The TNF-α in test [6] is 42.9 ± 15.52 pg/mL.
As to `CCCCCCCCCCCCC/C=C/[C@@H](O)[C@@H](N)COP(=O)(O)O` [S1P, sphingosine-1-phosphate], in test [1], the “secretion of TNF-α, trend with concentration” value was “tended to decrease slightly in a concentration-dependent manner”. In addition, in test [1] (10 nM), the “Amount of TNF-α” value turned out to be 15000 pg/mL and the inhibition at 0.01 µM was -4.2%. For the same compound, in test [1] (100 nM), the “Amount of TNF-α” value turned out to be 13880 pg/mL and the inhibition at 0.1 µM is -4.2%. Besides, in test [1] (500 nM), the “Amount of TNF-α” value is on record as 12700 pg/mL and the inhibition at 0.5 µM was 11.8%. Also, in test [1] (1000 nM), the “Amount of TNF-α” value amounted to 116600 pg/mL and the inhibition at 1 µM is ~19%. The “Average Antibody Titer” value in test [3] (setting [7]) is recorded as 4000 ± 1500. The “Average Antibody Titer” value in test [3] (setting [8]) turned out to be 140 ± 80. Further, the “Average Antibody Titer” value in test [3] (setting [9]) is reported as 4800 ± 2000. For the same compound, in test [3] (Before inoculation), the “Average Antibody Titer” value came out at 0. For the same compound, in test [4], the “IgG1 Average Antibody Titer” value stood at 1200 ± 430, the “IgG2a Average Antibody Titer” value was determined as 0 and the “IgG2b Average Antibody Titer” value was determined as 0. The “increase in IL-4, statistical significance” value in test [5] (splenocytes of immunized mice) is “statistically significant increase”. The IL-4 in test [5] stood at 11.84 ± 2.25 pg/mL. Moreover, in test [6] (splenocytes of immunized mice), the “increase in TNF-α, statistical significance” value is listed as “did not show a statistically significant increase”. This compound also displayed a TNF-α in test [6] of 36.25 ± 20.15 pg/mL.
